Data published in patent publication US12171233B1, “Ethyl {[N′-(3-chlorophenyl)-N-(2,4-dichlorobenzoyl) carbamimidoyl]sulfanyl}acetate as an eco-friendly insecticidal agent against Spodoptera littoralis (Boisd.)” (priority 2023, dated 2024).
≈ marks a conversion by molar mass, not a printed value. Like-named read-outs stand apart in the source and are kept apart here.

Tested on: Spodoptera littoralis larvae (2nd and 4th instar)
Assay: Insecticidal bioassay screening (castor leaf dip)
Format: in vivo
Conditions: for LC50 (ppm) at 95% / LC90 (ppm) at 95%: after 72 h of treatment; for Toxicity index %: Diflubenzuron LC50 / compound LC50 x 100; for LC50: foliar
Method: In this experiment, castor leaves are immersed in each of the previously prepared concentrations of the components for 10 seconds and then left to dry for 60 minutes. Larvae of the second and fourth instars of each checked strain are prepared with treated leaves in gauze-covered glass containers for 72 hrs. An untreated control is made in which leaves are dipped in triton x-100 and distilled water only. Then the preserved leaves were removed & fresh, untreated leaves were provided for 72 hours. Three replicates (10 larvae each) were checked for each concentration. Daily inspection was carried out for all treatments and mortality percentages were recorded 3 days (72 hours) after treatment. The average mortality percentage was corrected employing Abbott's formula. The corrected mortality rate for each of the previously synthesized compounds is statistically calculated according to Finney (1970). Through this rate, the corresponding concentration test lines (LDP lines) are assessed. Fifty and ninety percent mortality are determined, and the regression values for the checked products were previously evaluated.

[1] = 2nd instar larvae of S. littoralis
[2] = 4th instar larvae of S. littoralis

Compound: O=C(NC(=S)Nc1cccc(Cl)c1)c1ccc(Cl)cc1Cl [Compound 1, 2,4-dichloro-N-[(3-chlorophenyl)carbamothioyl]benzamide]
- LC50 (ppm) at 95% [1]: 211.4 ppm
- LC90 (ppm) at 95% [1]: 1913.2 ppm
- Toxicity index % (2nd instar larvae): 21.1%
- LC50 (ppm) at 95% [2]: 472.3 ppm
- LC90 (ppm) at 95% [2]: 4322.7 ppm
- Toxicity index % (4th instar larvae): 30.5%

Compound: CCOC(=O)CS/C(=N\c1cccc(Cl)c1)NC(=O)c1ccc(Cl)cc1Cl [Compound 2, Ethyl {[N′-(3-chlorophenyl)-N-(2,4-dichlorobenzoyl)carbamimidoyl]sulfanyl}acetate]
- LC50 (ppm) at 95% [1]: about 211.4 ppm
- LC50 (ppm) at 95% [2]: about 472.3 ppm
- effect on larval morphology (FIGS. 1A-1B) (S. littoralis larvae versus normal larvae (control)): Morphological malformations
- activity against Spodoptera littoralis (in words) (compared with reference insecticide Diflubenzuron): active against Spodoptera littoralis
- LC50 (against Spodoptera littoralis under laboratory conditions (instar not given), read-out: LC50): 211 µg/mL

Compound: O=C(NC(=O)c1c(F)cccc1F)Nc1ccc(Cl)cc1 [Diflubenzuron, reference compound]
- LC50 (ppm) at 95% [1]: 45.20 ppm
- LC90 (ppm) at 95% [1]: 520.0 ppm
- Toxicity index % (2nd instar larvae): 100%
- LC50 (ppm) at 95% [2]: 144.05 ppm
- LC90 (ppm) at 95% [2]: 1540.5 ppm
- Toxicity index % (4th instar larvae): 100%
- LC50 (Spodoptera littoralis): 45.2 µg/mL (≈ 145 µM)
